From paper PMC5777755, “Functional characterization of a unique cytochrome P450 in Toxoplasma gondii” (Oncotarget, 2017)

Biological target: T1, Tg-P450 (Toxoplasma gondii, UniProt S8EQL7)
T1 construct: gene TGME49_315770; P450 knockout as negative control
Test: in situ fluorescence microscopy of resorufin formation (rhodamine filter), knockout control
Format: cell-based
Details: 1 uM, 24 h, 37 °C; live tachyzoites in HepG2 cells; strain given as Tg-P450 OE in text, GT1 in figure legend

T1 sequence (S8EQL7 entry or part of it): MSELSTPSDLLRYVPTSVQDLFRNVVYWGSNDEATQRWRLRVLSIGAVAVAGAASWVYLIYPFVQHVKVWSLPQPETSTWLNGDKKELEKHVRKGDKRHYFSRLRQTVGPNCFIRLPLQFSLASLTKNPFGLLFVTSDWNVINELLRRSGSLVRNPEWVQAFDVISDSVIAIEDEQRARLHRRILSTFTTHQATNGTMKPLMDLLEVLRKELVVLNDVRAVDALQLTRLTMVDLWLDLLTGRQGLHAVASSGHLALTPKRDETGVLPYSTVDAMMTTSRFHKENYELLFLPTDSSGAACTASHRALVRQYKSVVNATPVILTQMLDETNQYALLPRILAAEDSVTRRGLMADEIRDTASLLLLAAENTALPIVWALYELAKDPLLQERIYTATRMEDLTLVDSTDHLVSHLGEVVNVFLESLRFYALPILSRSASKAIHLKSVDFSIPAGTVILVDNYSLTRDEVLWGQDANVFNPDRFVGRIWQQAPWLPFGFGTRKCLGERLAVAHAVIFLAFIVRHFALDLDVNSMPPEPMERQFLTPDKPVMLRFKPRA

Row | Compound | in situ fluorescence microscopy of resorufin formation (rhodamine filter), knock
1 | O=c1ccc2nc3ccc(OCc4ccccc4)cc3oc-2c1 [BR, benzoxyresorufin] | After treating the P450 knockout parasites with PR and BR, no fluorescence was observed
2 | CCCCCOc1ccc2nc3ccc(=O)cc-3oc2c1 [PR, pentoxyresorufin] | a weak specific fluorescence signal was visible in the Tg-P450 OE strain
